Measured values taken from patent US20240254129A1, “HETEROCYCLIC COMPOUNDS AND USES THEREOF” (Kumquat Biosciences Inc., priority 2021, published 2024).
Read-outs that look alike come from different tables or passages of the source.

Tests used:
wildtype Kras / hSOS1 = target: T1, wildtype Kras / hSOS1 (Homo sapiens, UniProt P01116); assay: HTRF assay, wildtype Kras / SOS1 interaction; type: binding; conditions: read-out: IC50 against wildtype Kras
T1 construct: made in house; host or cells: E. coli BL21 (DE3)
T1 sequence (P01116 1-188 isoform P01116-2): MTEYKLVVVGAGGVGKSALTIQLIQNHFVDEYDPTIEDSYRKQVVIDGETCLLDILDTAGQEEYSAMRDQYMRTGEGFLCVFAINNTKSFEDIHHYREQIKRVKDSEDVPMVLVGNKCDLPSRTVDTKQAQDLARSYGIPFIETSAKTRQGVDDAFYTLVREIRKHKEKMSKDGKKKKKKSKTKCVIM
In short: (§1)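 Tagged proteins: GST-K-Ras (wt or mutant), His-hSOS1; labels anti-GST-Eu/anti-6His-XL665; HEPES pH 7.4 buffer with DTT, BSA, Igepal. Read ≥10 min post-mix at ex 337 nm; IC50 from ratiometric data, duplicates.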

[1] = target: GST-tagged K-Ras mutant / His-tagged hSOS1 (Homo sapiens, UniProt P01116); assay: HTRF assay, K-Ras mutant / SOS1 interaction; type: binding; conditions: read-out: IC50 against mutant Kras
Sequence of GST-tagged K-Ras mutant / His-tagged hSOS1 (P01116 whole entry G12D, form open): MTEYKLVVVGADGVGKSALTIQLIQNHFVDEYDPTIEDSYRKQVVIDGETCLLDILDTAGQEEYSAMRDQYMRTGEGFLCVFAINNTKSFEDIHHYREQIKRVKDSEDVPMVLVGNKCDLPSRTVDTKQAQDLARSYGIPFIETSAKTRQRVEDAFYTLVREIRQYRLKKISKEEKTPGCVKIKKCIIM
In short: as §1

[2] = compound nos. 102-196, general methodology of example 5

IC50 (wildtype Kras / hSOS1; [2]) [nM]	IC50 [1, 2] [nM]	IC50 (wildtype Kras / hSOS1; compound nos. 401-703) [nM]	IC50 ([1]; compound nos. 401-703) [nM]	Structure (SMILES)
< 500	< 500			Nc1nc2c(-c3c(Cl)cc4c(N5CCNCC(O)C5)nc(OCC56CCCN5C[C@H](F)C6)nc4c3F)ccc(F)c2s1 (stereo partly drawn) [Compound 162, 1-(7-(2-amino-7-fluoro-benzo[d]thiazol-4-yl)-6-chloro-8-fluoro-2-(((2R)-2-fluorotetrahydro-1H-pyrrol-izin-7a(5H)-yl)methoxy)-quinazolin-4-yl)-1,4-diazepan-6-ol]
< 500	< 500			CN1CCC[C@H]1COc1nc(N2CCNCC(F)(F)C2)c2cc(Cl)c(-c3cccc4oc(N)nc34)c(F)c2n1 [Compound 158, 4-(6-chloro-4-(6,6-difluoro-1,4-diazepan-1-yl)-8-fluoro-2-(((S)-1-methylpyrrolidin-2-yl)methoxy)quinazolin-7-yl)benzo[d]oxazol-2-amine]
		> 500	< 500	N#Cc1c(N)sc2cccc(-c3c(Cl)cc4c(N5CC6CCC(C5)N6)nc(OC[C@@]56CCCN5C[C@H](F)C6)nc4c3F)c12 [Compound 552, 4-(4-(3,8-diazabicyclo-[3.2.1]octan-3-yl)-6-chloro-8-fluoro-2-(((2R,7aS)-2-fluorotetrahydro-1H-pyrrol-izin-7a(5H)-yl)methoxy)-quinazolin-7-yl)-2-amino-benzo[b]thiophene-3-carbonitrile]
		> 500	< 500	Nc1nc2c(-c3c(Cl)cc4c(N5CC6CCC(C5)NC6)nc(OC[C@@]56CCCN5C[C@H](F)C6)nc4c3F)ccc(F)c2s1 (stereo partly drawn) [Compound 511, 4-(4-(3,6-diazabicyclo-[3.2.2]nonan-3-yl)-6-chloro-8-fluoro-2-(((2R,7aS)-2-fluorotetrahydro-1H-pyrrol-izin-7a(5H)-yl)methoxy)-quinazolin-7-yl)-7-fluoro-benzo[d]thiazol-2-amine]
< 500	< 500			Nc1nc2c(-c3c(Cl)cc4c(N5CCOCC(O)C5)nc(OCC56CCCN5CCC6)nc4c3F)ccc(F)c2s1 (stereo not drawn) [Compound 159, 4-(7-(2-amino-7-fluoro-benzo[d]thiazol-4-yl)-6-chloro-8-fluoro-2-((tetra-hydro-1H-pyrrolizin-7a(5H)-yl)methoxy)quinazolin-4-yl)-1,4-oxazepan-6-ol]
		< 500	> 500	Nc1nc2c(-c3cc4c(=O)n(CCN5CCCC5)nc(N5C[C@H]6CC[C@@H](C5)N6)c4cc3Cl)ccc(F)c2s1 [Compound 404, 7-(2-amino-7-fluorobenzo[d]thiazol-4-yl)-4-((1R,5S)-3,8-diazabicyclo[3.2.1]octan-3-yl)-6-chloro-2-(2-(pyrrolidin-1-yl)ethyl)phthalazin-1(2H)-one]
		> 500	< 500	Nc1nc2c(-c3c(Cl)cc4c(N5CCNC(=O)CC5)nc(OC[C@@]56CCCN5C[C@H](F)C6)nc4c3F)ccc(F)c2s1 [Compound 604, 1-(7-(2-amino-7-fluoroben-zo[d]thiazol-4-yl)-6-chloro-8-fluoro-2-(((2R,7aS)-2-fluorotetrahydro-1H-pyrrol-izin-7a(5H)-yl)methoxy)-quinazolin-4-yl)-1,4-diazepan-5-one]
		> 500	> 500	N#Cc1ccc2ccccc2c1-c1c(Cl)cc2c(N3CC4CCC(C3)N4)nc(OC[C@@]34CCCN3C[C@H](F)C4)nc2c1F [Compound 558, 1-(4-(3,8-diazabicyclo-[3.2.1]octan-3-yl)-6-chloro-8-fluoro-2-(((2R,7aS)-2-fluorotetrahydro-1H-pyrrol-izin-7a(5H)-yl)methoxy)-quinazolin-7-yl)-2-naph-thonitrile]
		> 500	> 500	Nc1nc2c(C3CCc4c(nc(OC[C@@]56CCCN5C[C@H](F)C6)nc4N4CCNCC(F)(F)C4)C3)cccc2s1 (stereo partly drawn) [Compound 509, 4-(4-(6,6-difluoro-1,4-diazepan-1-yl)-2-(((2R,7aS)-2-fluorotetrahydro-1H-pyrrolizin-7a(5H)-yl)meth-oxy)-5,6,7,8-tetrahydro-quinazolin-7-yl)benzo[d]-thiazol-2-amine]
